Test results: patent US7589220B2, “Inhibitors of the anandamide transporter” (priority 1998, dated 2009)
pIC50: −log10 of the molar value. Read-outs that look alike come from different tables or passages of the source.

Experiments:
[1] = system: anandamide transporter; assay: substrate translocation of radioactively labeled analogs (FIGS. 1 and 2); format: cell-based; design: dose or concentration left out as unconfirmed; settings: radioactively labeled compounds
[2] = system: anandamide transporter; assay: [3H]anandamide competition assay using a high throughput method; format: cell-based, human
[3] = system: anandamide transporter; assay: [3H]anandamide accumulation in cortical astrocytes in culture; format: cell-based, rat; settings: for effect on [3H]anandamide accumulation: cortical astrocytes; for prevention of the temperature-sensitive component of [3H]anandamide accumulation: cortical astrocytes in culture
[4] = system: PGE2 carrier; assay: [3H]PGE2 accumulation in neurons or astrocytes; format: cell-based
Source text: The bromcresol green, which blocks PGE2 transport, raised the question of whether anandamide accumulation occurred by means of a PGE2 carrier. That this is not the case was shown by the lack of [^3H]PGE2 accumulation in neurons or astrocytes and by the inability of PGE2 to interfere with [^3H]anandamide accumulation.

[5] = system: anandamide transporter; assay: [3H]anandamide accumulation in neurons; format: cell-based, rat
[6] = system: astrocytes; assay: uptake of [3H]ethanolamine in astrocytes; format: cell-based
[7] = biological target: T1, rat cerebral membranes (Rattus norvegicus, UniProt P20272); assay: binding of [3H]WIN-55212-2 to rat cerebral membranes
T1 construct: from tissue; host or cells: rat cerebral membranes

[8] = system: astrocytes; assay: uptake of [3H]arachidonate in astrocytes; format: cell-based
[9] = Table I; affinity for ligand recognition by the anandamide transporter
[10] = read-out: IC50 (AT inhib.) μM); Table II; anandamide transporter inhibition
[11] = Table II; anandamide transporter inhibition; read-out: IC50 (AT inhib.) μM)
[12] = astrocytes, single high-affinity component

T1 sequence (P20272 whole entry): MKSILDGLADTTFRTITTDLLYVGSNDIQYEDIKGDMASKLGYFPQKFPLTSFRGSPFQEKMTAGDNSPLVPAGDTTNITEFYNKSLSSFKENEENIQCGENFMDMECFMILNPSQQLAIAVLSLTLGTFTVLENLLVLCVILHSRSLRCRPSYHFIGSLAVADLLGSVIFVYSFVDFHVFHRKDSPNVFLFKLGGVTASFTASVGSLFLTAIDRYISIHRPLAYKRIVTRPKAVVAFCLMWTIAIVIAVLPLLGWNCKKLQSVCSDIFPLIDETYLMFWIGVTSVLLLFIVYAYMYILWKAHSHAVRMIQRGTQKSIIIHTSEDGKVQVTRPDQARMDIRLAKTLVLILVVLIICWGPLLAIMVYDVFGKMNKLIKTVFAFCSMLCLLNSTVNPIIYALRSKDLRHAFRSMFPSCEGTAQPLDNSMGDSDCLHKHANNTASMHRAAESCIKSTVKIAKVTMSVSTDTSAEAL

## CCCCC/C=C\C/C=C\C/C=C\C/C=C\CCCC(=O)Nc1ccc(O)cc1 [AM404, N-(4-hydroxyphenyl)arachidonamide, reference compound]
[1]
  transport (translocation) compared with [3H]anandamide: transported as rapidly and effectively as

## CCCCC/C=C\C/C=C\C/C=C\C/C=C\CCCNC(=O)c1ccc(O)cc1 [AM1172]
[2]; [9]
  pIC50: 5.70
[1]
  transport (translocation) compared with [3H]anandamide: transported as rapidly and effectively as

## CCCCC/C=C\C/C=C\C/C=C\C/C=C\CCCCNC(=O)C(C)C [AM1177]
[2]; [9]
  pIC50: 5.30
[1]
  transport (translocation) compared with [3H]anandamide: transported as rapidly and effectively as

## CCCCC/C=C\C/C=C\C/C=C\C/C=C\CCCC(=O)OC1COC(c2ccccc2)OC1 (centres unmarked) [AM1191]
[2]; [9]
  pIC50: 6.10
[1]
  transport (translocation) compared with [3H]anandamide: transported as rapidly and effectively as

## CCCCCC=CCC=CCC=CCC=CCCCCOC(=O)NC(C)CO (centres unmarked) [Compound 1]
[2]; [10]
  IC50: 7.1 µM

## CCCCCC=CCC=CCC=CCC=CCCCCOC(=O)NC(C)CO (centres unmarked) [Compound 2]
[2]; [10]
  IC50: 6.4 µM

## CCCCCC=CCC=CCC=CCC=CCCCCOC(=O)NCC(C)O (centres unmarked) [Compound 3]
[2]; [10]
  IC50: 1.5 µM

## CCCCCC=CCC=CCC=CCC=CCCCCOC(=O)NCC(C)O (centres unmarked) [Compound 4]
[2]; [10]
  IC50: 0.4 µM

## CCCCCC=CCC=CCC=CCC=CCCCCOC(=O)NC(C)C [Compound 5]
[2]; [10]
  IC50: 21.9 µM

## CCCCCC=CCC=CCC=CCC=CCCCCOC(=O)NC1CC1 [Compound 6]
[2]; [10]
  IC50: 15.5 µM

## CCCCCC=CCC=CCC=CCC=CCCCCOC(=O)NC1CCC1 [Compound 7]
[2]; [10]
  IC50: 15.5 µM

## CCCCCC=CCC=CCC=CCC=CCCCCOC(=O)NC1CCCCC1 [Compound 8]
[2]; [10]
  IC50: 33 µM

## CCCCCC=CCC=CCC=CCC=CCCCCOC(=O)Nc1ccc(O)cc1 [Compound 9]
[2]; [10]
  IC50: 6.6 µM

## CCCCCC=CCC=CCC=CCC=CCCCCOC(=O)NC1=NCCS1 [Compound 10]
[2]; [11]
  IC50: 8.6 µM

## CCCCCC=CCC=CCC=CCC=CCCCCOC(=O)Nc1cccnc1 [Compound 11]
[2]; [10]
  IC50: 16.1 µM

## CCCCCC=CCC=CCC=CCC=CCCCCNC(=O)NCC(C)O (centres unmarked) [Compound 12]
[2]; [10]
  IC50: 1.78 µM

## CCCCCC=CCC=CCC=CCC=CCCCCNC(=O)OCC(C)O (centres unmarked) [Compound 16]
[2]; [10]
  IC50: 3.29 µM

## CCCCC/C=C\C/C=C\C/C=C\C/C=C\CCCC(=O)Nc1nccs1 [Compound 17]
[2]; [11]
  IC50: 1.7 µM

## CCCCC/C=C\C/C=C\C/C=C\C/C=C\CCCC(=O)NC1=NCCS1 [Compound 18]
[2]; [11]
  IC50: 2.8 µM

## CCCCC/C=C\C/C=C\C/C=C\C/C=C\CCCC(=O)Nc1nncs1 [Compound 19]
[2]; [11]
  IC50: 1.5 µM

## CCCCC/C=C\C/C=C\C/C=C\C/C=C\CCCC(=O)Nc1nc2ccccc2s1 [Compound 20]
[2]; [11]
  IC50: 44.2 µM

## CCCCC/C=C\C/C=C\C/C=C\C/C=C\CCCC(=O)Nc1nc(Br)cs1 [Compound 21]
[2]; [11]
  IC50: 92.3 µM

## CCCCC/C=C\C/C=C\C/C=C\C/C=C\CCCC(=O)Nc1ncc([N+](=O)[O-])s1 [Compound 22]
[2]; [11]
  IC50: 14.1 µM

## CCCCC/C=C\C/C=C\C/C=C\C/C=C\CCCC(=O)Nc1nc(C)cs1 [Compound 23]
[2]; [11]
  IC50: 11.2 µM

## CCCCC/C=C\C/C=C\C/C=C\C/C=C\CCCC(=O)Nc1nc(C)c(C)s1 [Compound 24]
[2]; [11]
  IC50: 26 µM

## CCCCC/C=C\C/C=C\C/C=C\C/C=C\CCCC(=O)Nc1nc(C(C)(C)C)cs1 [Compound 25]
[2]; [11]
  IC50: 24.1 µM

## CCCCC[C@H](O)/C=C/[C@H]1[C@H](O)CC(=O)[C@@H]1C/C=C\CCCC(=O)O [PGE2, prostaglandin E2]
[3]
  interference with [3H]anandamide accumulation: inability
[4]
  accumulation of [3H]PGE2: lack

## Cc1c(C(=O)NN2CCCCC2)nn(-c2ccc(Cl)cc2Cl)c1-c1ccc(Cl)cc1.Cl [SR-141716-A]
[5]; neurons, 100 nM
  displacement of the higher affinity component of [3H]anandamide accumulation: displaced
[3]; 10 μM
  effect on [3H]anandamide accumulation: no effect

## Cc1c(C(=O)c2cccc3ccccc23)c2cccc3c2n1[C@H](CN1CCOCC1)CO3 [WIN-55212-2]
[3]; 1 μM
  effect on [3H]anandamide accumulation: no effect

## CCCCC/C=C\C/C=C\C/C=C\C/C=C\CCCC(=O)NCCO [anandamide, Arachidonyl ethanolamide]
[5]; neurons and astrocytes
  time to reach 50% of maximum accumulation: about four
[5]; neurons, higher affinity component
  Vmax: 5.9 pmol/min per milligram of protein
[5]; neurons, higher affinity component, read-out: Km
  Km: 0.032 µM
[5]; neurons, lower affinity component
  maximum accumulation rate, Vmax: 90.9 pmol/min per milligram of protein
[5]; neurons, lower affinity component, read-out: Michaelis constant, Km
  Km: 1.2 µM
[3]; [12]
  Km: 0.32 µM
  Vmax: 171 pmol/min per milligram of protein
[3]
  prevention of the temperature-sensitive component of [3H]anandamide accumulation: prevented

## Cc1c(C2(c3cc(Br)c(O)c(Br)c3C)OS(=O)(=O)c3ccccc32)cc(Br)c(O)c1Br [bromcresol green]
[6]
  effect on uptake of [3H]ethanolamine: no significant effect
[7]
  effect on the binding of [3H]WIN-55212-2: no significant effect
[5]; neurons and astrocytes
  mode of inhibition of [3H]anandamide accumulation: noncompetitively
[8]
  effect on uptake of [3H]arachidonate: no significant effect

## CCCCCCCCCCCCCCCC(=O)NCCO [palmitoyl ethanolamide]
[3]
  prevention of the temperature-sensitive component of [3H]anandamide accumulation: not
